Measured values published in patent US11980596B2 (priority 2017, dated 2024).

System: subjects with MDD at imminent risk for suicide
[1] = esketamine 84 mg, double-blind phase, N = 35
[2] = esketamine 84 mg, follow up phase, N = 27

Description: The study consisted of a screening evaluation performed within 24 hours (or up to 48 hours upon consultation with the Sponsor's medical monitor) prior to Day 1 dose, immediately followed by a 25-day double-blind treatment phase (Day 1 to 25) with twice a week dosing, and a 56-day follow up phase (Day 26 to Day 81). The study was designed as a POC study and therefore a two-sided 0.20 significance level was used.
Among 68 randomized subjects, 66 were included in the safety analysis set (defined as receiving at least one dose of study medication in the double-blind phase). […] All safety subjects (N=66) were included in the intent-to-treat (ITT) analysis set (defined as receiving at least one dose of study medication during the double-blind phase and having both the baseline and the Day 1, 4-hour postdose evaluation for the MADRS total score). Forty-nine subjects were included in the safety (FU) analysis set (defined as all subjects who have at least 1 visit during the follow up phase).

CN[C@]1(c2ccccc2Cl)CCCCC1=O [esketamine, (S)-2-(2-chlorophenyl)-2-(methylamino)cyclohexanone] was tested, and the “TEAE leading to study discontinuation: Dysgeusia” value [1] was 1 (2.9%) subjects (%), the “TEAE leading to study discontinuation: Dyspnea” value [1] was 1 (2.9%) subjects (%) and the “TEAE leading to study discontinuation: Gastrointestinal disorders” value [1] was 1 (2.9%) subjects (%). For the same molecule, the “TEAE leading to study discontinuation: Nausea” value [1] was 1 (2.9%) subjects (%), the “TEAE leading to study discontinuation: Nervous system disorders” value [1] was 2 (5.7%) subjects (%) and the “TEAE leading to study discontinuation: Panic attack” value [1] was 0 subjects (%). For the same molecule, the “TEAE leading to study discontinuation: Psychiatric disorders” value [1] was 2 (5.7%) subjects (%), the “TEAE leading to study discontinuation: Respiratory, thoracic and mediastinal disorders” value [1] was 1 (2.9%) subjects (%) and the “TEAE leading to study discontinuation: Ventricular extrasystoles” value [1] was 1 (2.9%) subjects (%). The “Total no. subjects with TEAE” value [1] was 33, the “Total no. subjects with TEAE leading to study discontinuation” value [1] was 5 (14.3%) subjects (%) and the “Total no. subjects with a serious TEAE” value [1] was 4 (11.4%) subjects (%). The “Total subjects with TEAE, % of subjects” value [1] was “(94.3%)”, the “Possibly related TEAE” value (esketamine 84 mg, double-blind phase, N = 35, possible, probable, very likely) was 29 (82.9%) subjects (%) and the “AE Abdominal pain, % of subjects” value [2] was “(3.7%)”. For the same molecule, the “AE Abdominal pain, no. subjects” value [2] was 1, the “AE Abdominal tenderness, % of subjects” value [2] was “(3.7%)” and the “AE Abdominal tenderness, no. subjects” value [2] was 1. For the same molecule, the “AE Aphthous ulcer, no. subjects” value [2] was 0, the “AE Back pain, % of subjects” value [2] was “(3.7%)” and the “AE Back pain, no. subjects” value [2] was 1. For the same molecule, the “AE Bronchitis, no. subjects” value [2] was 0, the “AE Cellulitis, no. subjects” value [2] was 0 and the “AE Cogwheel rigidity, % of subjects” value [2] was “(3.7%)”. For the same molecule, the “AE Cogwheel rigidity, no. subjects” value [2] was 1, the “AE Contusion, % of subjects” value [2] was “(3.7%)” and the “AE Contusion, no. subjects” value [2] was 1. The “AE Depressed mood, no. subjects” value [2] was 0, the “AE Depression, % of subjects” value [2] was “(3.7%)” and the “AE Depression, no. subjects” value [2] was 1. For the same molecule, the “AE Diarrhea, % of subjects” value [2] was “(3.7%)”, the “AE Diarrhea, no. subjects” value [2] was 1 and the “AE Dizziness, % of subjects” value [2] was “(3.7%)”. For the same molecule, the “AE Dizziness, no. subjects” value [2] was 1, the “AE Drug hypersensitivity, no. subjects” value [2] was 0 and the “AE Dry mouth, % of subjects” value [2] was “(7.4%)”. For the same molecule, the “AE Dry mouth, no. subjects” value [2] was 2, the “AE Dysgeusia, % of subjects” value [2] was “(3.7%)” and the “AE Dysgeusia, no. subjects” value [2] was 1. For the same molecule, the “AE Ear and labyrinth disorders, no. subjects” value [2] was 0, the “AE Ear infection, % of subjects” value [2] was “(3.7%)” and the “AE Ear infection, no. subjects” value [2] was 1. For the same molecule, the “AE Epistaxis, % of subjects” value [2] was “(3.7%)”, the “AE Epistaxis, no. subjects” value [2] was 1 and the “AE Flank pain, % of subjects” value [2] was “(3.7%)”. For the same molecule, the “AE Flank pain, no. subjects” value [2] was 1, the “AE Folliculitis, no. subjects” value [2] was 0 and the “AE Gastrointestinal disorders, % of subjects” value [2] was “(22.2%)”. The “AE Gastrointestinal disorders, no. subjects” value [2] was 6, the “AE Headache, % of subjects” value [2] was “(7.4%)” and the “AE Headache, no. subjects” value [2] was 2. For the same molecule, the “AE Immune system disorders, no. subjects” value [2] was 0, the “AE Infections and infestations, % of subjects” value [2] was “(11.1%)” and the “AE Infections and infestations, no. subjects” value [2] was 3. For the same molecule, the “AE Influenza, no. subjects” value [2] was 0, the “AE Injury, poisoning and procedural complications, % of subjects” value [2] was “(7.4%)” and the “AE Injury, poisoning and procedural complications, no. subjects” value [2] was 2. For the same molecule, the “AE Insomnia, % of subjects” value [2] was “(11.1%)”, the “AE Insomnia, no. subjects” value [2] was 3 and the “AE Intentional self-injury, % of subjects” value [2] was “(3.7%)”. For the same molecule, the “AE Intentional self-injury, no. subjects” value [2] was 1, the “AE Loss of consciousness, % of subjects” value [2] was “(3.7%)” and the “AE Loss of consciousness, no. subjects” value [2] was 1. For the same molecule, the “AE Meniere's disease, no. subjects” value [2] was 0, the “AE Metabolism and nutrition disorders, no. subjects” value [2] was 0 and the “AE Migraine, % of subjects” value [2] was “(3.7%)”. For the same molecule, the “AE Migraine, no. subjects” value [2] was 1, the “AE Musculoskeletal and connective tissue disorders, % of subjects” value [2] was “(7.4%)” and the “AE Musculoskeletal and connective tissue disorders, no. subjects” value [2] was 2. For the same molecule, the “AE Musculoskeletal chest pain, % of subjects” value [2] was “(3.7%)”, the “AE Musculoskeletal chest pain, no. subjects” value [2] was 1 and the “AE Musculoskeletal pain, % of subjects” value [2] was “(3.7%)”. For the same molecule, the “AE Musculoskeletal pain, no. subjects” value [2] was 1, the “AE Nasal congestion, % of subjects” value [2] was “(3.7%)” and the “AE Nasal congestion, no. subjects” value [2] was 1. The “AE Nasopharyngitis, % of subjects” value [2] was “(3.7%)”, the “AE Nasopharyngitis, no. subjects” value [2] was 1 and the “AE Nausea, no. subjects” value [2] was 0. The “AE Neck pain, % of subjects” value [2] was “(3.7%)”, the “AE Neck pain, no. subjects” value [2] was 1 and the “AE Nervous system disorders, % of subjects” value [2] was “(22.2%)”. For the same molecule, the “AE Nervous system disorders, no. subjects” value [2] was 6, the “AE Night sweats, % of subjects” value [2] was “(3.7%)” and the “AE Night sweats, no. subjects” value [2] was 1. The “AE Panic reaction, no. subjects” value [2] was 0, the “AE Pelvic pain, % of subjects” value [2] was “(3.7%)” and the “AE Pelvic pain, no. subjects” value [2] was 1. For the same molecule, the “AE Pharyngitis, % of subjects” value [2] was “(7.4%)”, the “AE Pharyngitis, no. subjects” value [2] was 2 and the “AE Polydipsia, no. subjects” value [2] was 0. For the same molecule, the “AE Procedural pain, no. subjects” value [2] was 0, the “AE Psychiatric disorders, % of subjects” value [2] was “(18.5%)” and the “AE Psychiatric disorders, no. subjects” value [2] was 5. For the same molecule, the “AE Rash, no. subjects” value [2] was 0, the “AE Renal and urinary disorders, no. subjects” value [2] was 0 and the “AE Renal failure, no. subjects” value [2] was 0. For the same molecule, the “AE Reproductive system and breast disorders, % of subjects” value [2] was “(3.7%)”, the “AE Reproductive system and breast disorders, no. subjects” value [2] was 1 and the “AE Respiratory, thoracic and mediastinal disorders, % of subjects” value [2] was “(7.4%)”. For the same molecule, the “AE Respiratory, thoracic and mediastinal disorders, no. subjects” value [2] was 2, the “AE Restlessness, % of subjects” value [2] was “(3.7%)” and the “AE Restlessness, no. subjects” value [2] was 1. The “AE Road traffic accident, % of subjects” value [2] was “(3.7%)”, the “AE Road traffic accident, no. subjects” value [2] was 1 and the “AE Sedation, % of subjects” value [2] was “(3.7%)”. For the same molecule, the “AE Sedation, no. subjects” value [2] was 1, the “AE Self-injurious ideation, no. subjects” value [2] was 0 and the “AE Sexual dysfunction, no. subjects” value [2] was 0. The “AE Skin and subcutaneous tissue disorders, % of subjects” value [2] was “(3.7%)”, the “AE Skin and subcutaneous tissue disorders, no. subjects” value [2] was 1 and the “AE Somnolence, no. subjects” value [2] was 0. For the same molecule, the “AE Suicidal ideation, % of subjects” value [2] was “(3.7%)”, the “AE Suicidal ideation, no. subjects” value [2] was 1 and the “AE Suicide attempt, no. subjects” value [2] was 0. For the same molecule, the “AE Tooth impacted, no. subjects” value [2] was 0, the “AE Toothache, no. subjects” value [2] was 0 and the “AE Tremor, % of subjects” value [2] was “(7.4%)”. For the same molecule, the “AE Tremor, no. subjects” value [2] was 2, the “AE Upper respiratory tract infection, % of subjects” value [2] was “(3.7%)” and the “AE Upper respiratory tract infection, no. subjects” value [2] was 1. The “AE Viral upper respiratory tract infection, no. subjects” value [2] was 0, the “AE Vomiting, % of subjects” value [2] was “(3.7%)” and the “AE Vomiting, no. subjects” value [2] was 1. For the same molecule, the “AE Vulvovaginal mycotic infection, % of subjects” value [2] was “(3.7%)”, the “AE Vulvovaginal mycotic infection, no. subjects” value [2] was 1 and the “Serious adverse event: Cellulitis” value [2] was 0 subjects (%). For the same molecule, the “Serious adverse event: Infections and infestations” value [2] was 0 subjects (%), the “Serious adverse event: Psychiatric disorders” value [2] was 1 (3.7%) subjects (%) and the “Serious adverse event: Suicidal ideation” value [2] was 1 (3.7%) subjects (%). For the same molecule, the “Serious adverse event: Suicide attempt” value [2] was 0 subjects (%), the “Total no. subjects with a serious adverse event” value [2] was 1 (3.7%) subjects (%) and the “Total no. subjects with adverse events” value [2] was 13. For the same molecule, the “Total subjects with adverse events, % of subjects” value [2] was “(48.1%)” and the “Suicide attempts (non-fatal)” value (follow up period) was “none”.
